Results published in patent publication US12509459B2, “Inhibitors of NLRP3 inflammasome” (BioAge Labs, Inc., priority 2024, dated 2025).

What follows are compounds tested against NLRP3 (Homo sapiens, UniProt Q96P20) (assay: THP-1 cell-based NLRP3 activation assay). Conditions: PMA-differentiated THP-1 cells, LPS 100 ng/mL then 10 μM nigericin.
Set-up: endogenous in cells; host or cells: THP-1 cells (PMA-differentiated, LPS-primed, nigericin-stimulated)
Procedure: THP-1 cells are cultured in complete media (CM) until they reach logarithmic growth and achieve a viability >90%. CM is composed of RPMI-1640 (+Glutamax)/10% fetal bovine serum/55 μM β-mercaptoethanol/pen/strep. Cells are spun down and resuspended to 1,000,000 cells/mL in CM containing either 20 nM or 500 nM PMA. 150,000 cells (150 μL) are then added to each well of a 96-well TC plate and incubated for either 24 hr or 3 hr, respectively, in a standard cell culture incubator (37° C.; 5% CO2). After this incubation, the plate is tilted and media carefully removed. 200 μL of CM containing 100 ng/mL LPS is then added to the wells and the cells incubated an additional 3 hrs. The media is again removed and replaced with Opti-Mem medium containing pre-determined dilutions of test compounds in replicate wells. After a 30 min incubation, 10 μM nigericin (final concentration) in Opti-Mem medium with the corresponding concentration of compound is added to the wells for an additional 1 hr. Positive control wells contain 10 μM nigericin in Opti-Mem in the absence of test compound, while negative control wells contain Opti-Mem only. […] Once supernatants are removed, the relative viability of adherent cells in the 96-well TC plate are determined using a CellTiter-Glo® luminescent cell viability assay (Promega).

Sequence of NLRP3 (Q96P20 whole entry): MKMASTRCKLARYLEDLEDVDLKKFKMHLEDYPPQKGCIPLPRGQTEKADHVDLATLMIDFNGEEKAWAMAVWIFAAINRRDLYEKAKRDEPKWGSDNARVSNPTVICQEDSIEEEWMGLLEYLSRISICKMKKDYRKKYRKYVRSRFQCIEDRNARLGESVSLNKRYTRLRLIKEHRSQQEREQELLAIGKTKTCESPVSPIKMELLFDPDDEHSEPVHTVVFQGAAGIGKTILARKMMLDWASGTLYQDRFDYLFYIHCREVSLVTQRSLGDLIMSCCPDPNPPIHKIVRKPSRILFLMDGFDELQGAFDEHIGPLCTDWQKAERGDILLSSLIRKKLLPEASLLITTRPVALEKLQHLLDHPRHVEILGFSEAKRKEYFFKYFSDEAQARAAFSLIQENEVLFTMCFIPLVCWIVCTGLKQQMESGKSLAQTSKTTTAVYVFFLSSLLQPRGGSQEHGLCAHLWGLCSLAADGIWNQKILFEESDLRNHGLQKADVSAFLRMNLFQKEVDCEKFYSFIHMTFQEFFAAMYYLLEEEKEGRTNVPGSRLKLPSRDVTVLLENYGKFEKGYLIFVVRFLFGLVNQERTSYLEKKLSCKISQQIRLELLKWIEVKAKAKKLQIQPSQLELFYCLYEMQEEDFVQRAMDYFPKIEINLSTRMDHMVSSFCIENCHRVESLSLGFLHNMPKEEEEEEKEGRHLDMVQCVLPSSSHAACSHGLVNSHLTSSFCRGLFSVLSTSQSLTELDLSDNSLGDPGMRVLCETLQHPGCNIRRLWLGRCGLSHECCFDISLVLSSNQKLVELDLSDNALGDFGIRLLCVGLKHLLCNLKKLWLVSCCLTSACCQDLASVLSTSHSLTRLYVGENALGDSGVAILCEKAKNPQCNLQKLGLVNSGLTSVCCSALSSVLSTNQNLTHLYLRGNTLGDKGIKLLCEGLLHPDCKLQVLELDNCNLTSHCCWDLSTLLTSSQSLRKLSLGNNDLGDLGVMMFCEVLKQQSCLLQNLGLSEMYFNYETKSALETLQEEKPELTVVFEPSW

Row | SMILES | IC50 [nM]
1 | CCOc1cc(C(=O)N(C)C(c2cncc3cn[nH]c23)C2C[N+](C)([O-])C2)ccc1-c1cccc(F)c1 (stereo not drawn) [Compound 192] | 100 to 500
2 | CCc1ncc([C@@H](CO)N(C)C(=O)c2ccc(-c3cccc(F)c3)c(OC3CC3)c2)c2[nH]ncc12 [Compound 034] | > 15000
3 | CCOc1cc(C(=O)N(Cc2cncc3cn[nH]c23)C2CC(NC)C2)ccc1-c1ccccc1 (stereo not drawn) [Compound 237] | 1000 to 15000
4 | CCOc1cc(C(=O)N(C)[C@H](CN2CCCC2)c2cncc3cn[nH]c23)ccc1-c1cccc(F)c1 [Compound 129] | 500 to 1000
5 | CCOc1cc(C(=O)N(C)[C@@H](c2cncc3cn[nH]c23)C2CNC2)ccc1-c1ccccc1 [Compound 150] | 1000 to 15000
6 | CCOc1cc(C(=O)N(C)[C@H](CCN)c2cncc3cn[nH]c23)ccc1C [Compound 185] | 1000 to 15000
7 | CCOc1cc(C(=O)N(Cc2cncc3cn[nH]c23)C2CC(NC)C2)ccc1-c1cccc(F)c1 (stereo not drawn) [Compound 235] | 100 to 500
8 | CCOc1cc(C(=O)N(Cc2cncc3cn[nH]c23)C2CC(N(C)C)C2)ccc1-c1ccccc1 (stereo not drawn) [Compound 243] | 1000 to 15000
9 | CCOc1cc(C(=O)N(CCO)Cc2cnc(N)c3cn[nH]c23)ccc1-c1cccc(C#N)c1 [Compound 043] | 100 to 500
10 | CCOc1cc(C(=O)N(C)[C@H](c2c[nH]cn2)c2cncc3cn[nH]c23)ccc1-c1cccc(F)c1 [Compound 267] | 100 to 500
11 | CCOc1cc(C(=O)N(C)[C@H](C[C@H](C)O)c2cncc3cn[nH]c23)ccc1-c1cccc(Cl)c1 [Compound 008] | 1000 to 15000
12 | CCOc1cc(C(=O)N(C)[C@H](CCN(C)C)c2cncc3cn[nH]c23)ccc1C1CC1 [Compound 146] | 100 to 500
13 | CCOc1cc(C(=O)N(C[C@H](C)O)[C@H](C)c2cnc(C)c3cn[nH]c23)ccc1-c1cccc(F)c1 [Compound 059] | 1000 to 15000
14 | CCOc1cc(C(=O)N(CCO)Cc2cnc(N)c3cn[nH]c23)ccc1-c1cccc(F)c1 [Compound 047] | 100 to 500
15 | CCOc1cc(C(=O)N(C)[C@H](CO)c2cnc(C)c3cn[nH]c23)ccc1-c1cc(C)cc(F)c1 [Compound 021] | 100 to 500
16 | CCOc1cc(C(=O)N(CCO)Cc2cnc(NC)c3cn[nH]c23)ccc1-c1cccc(C#N)c1 [Compound 044] | 100 to 500
17 | CCOc1cc(C(=O)N(C)[C@H](CCOC)c2cncc3cn[nH]c23)ccc1-c1cccc(Cl)c1 [Compound 016] | > 15000
18 | CCOc1cc(C(=O)N(C)[C@@H](CN(C)C)c2cncc3cn[nH]c23)ccc1C(C)C [Compound 209] | < 100

Row | SMILES | IC50 [nM]
19 | CCOc1cc(C(=O)N(Cc2cccc3cn[nH]c23)[C@H]2C[C@@H](N(C)C)C2)ccc1-c1cccc(C#N)c1 [Compound 293] | < 100
20 | CCOc1cc(C(=O)N(CCO)Cc2cnc(C)c3cn[nH]c23)ccc1-c1cccc(F)c1 [Compound 051] | < 100
21 | CCOc1cc(C(=O)N(C)[C@H](CC[N+]([O-])(CC)CC)c2cccc3cn[nH]c23)ccc1-c1cccc(F)c1 [Compound 216] | < 100
22 | CCOc1cc(C(=O)N(C)[C@@H](c2cncc3cn[nH]c23)C2CN(C)C2)ccc1-c1cccc(F)c1 [Compound 079] | < 100
23 | CCOc1cc(C(=O)N(Cc2cncc3cn[nH]c23)C2CC(N(C)C)C2)ccc1-c1cccc(F)c1 (stereo not drawn) [Compound 240] | 500 to 1000
24 | CCOc1cc(C(=O)N(C)[C@H](CN(C)C)c2cncc3cn[nH]c23)ccc1C(C)C [Compound 208] | 1000 to 15000
25 | CCOc1cc(C(=O)N(C)[C@H](c2cncc3cn[nH]c23)C2CN(C)C2)ccc1-c1cccc(Cl)c1 [Compound 148] | < 100
26 | CCOc1cc(C(=O)N(C)[C@H](CCNC)c2cncc3cn[nH]c23)ccc1-c1cccc(C#N)c1 [Compound 232] | < 100
27 | CCOc1cc(C(=O)N(CCN2CCC(F)CC2)Cc2cncc3cn[nH]c23)ccc1-c1cccc(F)c1 [Compound 110] | < 100
28 | CCOc1cc(C(=O)N(C[C@H](C)O)[C@@H](C)c2cnc(C)c3cn[nH]c23)ccc1-c1cccc(F)c1 [Compound 061] | > 15000
29 | CCOc1cc(C(=O)N(C)[C@H](CCNCCF)c2cncc3cn[nH]c23)ccc1-c1ccccc1 [Compound 136] | < 100
30 | CCOc1cc(C(=O)N(C)[C@H](CO)c2cncc3cn[nH]c23)ccc1-c1cc(C)cc(F)c1 [Compound 003] | < 100
31 | CCOc1cc(C(=O)N(C)[C@H](CC[N+](C)(C)[O-])c2cncc3cn[nH]c23)ccc1-c1cccc(Cl)c1 [Compound 210] | 1000 to 15000
32 | CCOc1cc(C(=O)N(Cc2cnc(C)c3cn[nH]c23)[C@H]2CC[C@@H]2O)ccc1-c1cccc(F)c1 [Compound 056] | < 100
33 | CCOc1cc(C(=O)N(C)[C@@H](c2cncc3cn[nH]c23)[C@@H]2CCNC2)ccc1-c1ccccc1 [Compound 159] | < 100
34 | CCOc1cc(C(=O)N(CCN2CCCCC2)Cc2cncc3cn[nH]c23)ccc1-c1cccc(F)c1 [Compound 117] | < 100
35 | CCOc1cc(C(=O)N(C)[C@H](CCN(C)C)c2cccc3cn[nH]c23)ccc1-c1cccc(F)c1 [Compound 186] | < 100
36 | CCOc1cc(C(=O)N(C)[C@H](CCN(C)CCCF)c2cncc3cn[nH]c23)ccc1-c1ccccc1 [Compound 138] | < 100

Further lines, results first:

Row | IC50 [nM] | SMILES
37 | < 100 | CCOc1cc(C(=O)N(C)[C@H](c2cncc3cn[nH]c23)C2CN(C)C2)ccc1-c1cccc(C#N)c1 [Compound 144]
38 | < 100 | CCOc1cc(C(=O)N(Cc2cncc3cn[nH]c23)[C@H]2C[C@@H](N(C)C)C2)ccc1-c1cccc(F)c1 [Compound 244]
39 | < 100 | CCOc1cc(C(=O)N(C)[C@H](CN(CC)CC)c2cncc3cn[nH]c23)ccc1-c1cccc(F)c1 [Compound 127]
40 | < 100 | CCOc1cc(C(=O)N(C)[C@H](CCN(C)C)c2cccc3cn[nH]c23)ccc1-c1cccc(C#N)c1 [Compound 196]
41 | < 100 | CCOc1cc(C(=O)N(C)[C@H](CCNCCCF)c2cncc3cn[nH]c23)ccc1-c1cccc(Cl)c1 [Compound 139]
42 | < 100 | CCOc1cc(C(=O)N(C)C(CCN(C)C)c2cccc3cn[nH]c23)ccc1-c1ccccc1 (stereo not drawn) [Compound 135]
43 | < 100 | CCOc1cc(C(=O)N(Cc2cncc3cn[nH]c23)[C@H]2C[C@@H](NC)C2)ccc1-c1ccccc1 [Compound 239]
44 | < 100 | CCOc1cc(C(=O)N(C)[C@@H](c2cncc3cn[nH]c23)[C@@H]2CCN(C)C2)ccc1-c1cccc(F)c1 [Compound 081]
45 | < 100 | CCOc1cc(C(=O)N(C)[C@H](CCN(C)CCCF)c2cncc3cn[nH]c23)ccc1-c1cccc(F)c1 [Compound 137]
46 | < 100 | CCOc1cc(C(=O)N(C)[C@@H](c2cncc3cn[nH]c23)C2CN(CC)C2)ccc1-c1cccc(C)c1 [Compound 169]
47 | < 100 | CCOc1cc(C(=O)N(C)[C@H](CCN(C)CC)c2cccc3cn[nH]c23)ccc1-c1cccc(F)c1 [Compound 214]
48 | < 100 | CCOc1cc(C(=O)N(C)[C@H](CO)c2cnc(C)c3cn[nH]c23)ccc1-c1cccc(Cl)c1 [Compound 019]
49 | < 100 | CCOc1cc(C(=O)N(CCO)Cc2cnc(N)c3cn[nH]c23)ccc1-c1cccc(Cl)c1 [Compound 046]
50 | < 100 | CCOc1cc(C(=O)N(C)[C@H](CCN2C[C@@H](F)[C@@H](F)C2)c2cncc3cn[nH]c23)ccc1-c1cccc(F)c1 [Compound 086]
51 | < 100 | CCOc1cc(C(=O)N(C)[C@@H](c2cncc3cn[nH]c23)C2CN(CC)C2)ccc1-c1cccc(F)c1 [Compound 173]
52 | < 100 | CCOc1cc(C(=O)N(C)[C@H](CCN(C)C)c2cnc(C)c3cn[nH]c23)ccc1-c1cccc(C)c1 [Compound 084]
53 | < 100 | CCOc1cc(C(=O)N(C)[C@H](CCN(CC)CC)c2cncc3cn[nH]c23)ccc1-c1cccc(F)c1 [Compound 103]
54 | < 100 | CCOc1cc(C(=O)N(C)[C@@H](c2cccc3cn[nH]c23)C2CN(C)C2)ccc1-c1cccc(Cl)c1 [Compound 282]
55 | < 100 | CN(C(=O)c1ccc(-c2cccc(F)c2)c(OC2CC2)c1)[C@H](CCN1CCC1)c1cncc2cn[nH]c12 [Compound 225]
56 | < 100 | CCOc1cc(C(=O)N(Cc2cnc(C)c3cn[nH]c23)[C@H]2C[C@@H](NC)C2)ccc1-c1cccc(F)c1 [Compound 278]
57 | < 100 | CCOc1cc(C(=O)N(C)[C@@H](CN(CC)CC)c2cncc3cn[nH]c23)ccc1-c1cccc(F)c1 [Compound 128]
58 | < 100 | CCOc1cc(C(=O)N(Cc2cccc3cn[nH]c23)[C@H]2C[C@@H](N(C)C)C2)ccc1-c1cccc(F)c1 [Compound 251]
59 | < 100 | CCOc1cc(C(=O)N(Cc2ccc(C)c3cn[nH]c23)[C@H]2C[C@@H](NC)C2)ccc1-c1cccc(F)c1 [Compound 266]
60 | < 100 | CCOc1cc(C(=O)N(C)[C@@H](c2cncc3cn[nH]c23)C2CN(C(C)C)C2)ccc1-c1cccc(F)c1 [Compound 175]
61 | < 100 | CCOc1cc(C(=O)N(C)C(CN2CCC(O)C2)c2cncc3cn[nH]c23)ccc1-c1cccc(F)c1 (stereo not drawn) [Compound 247]
62 | < 100 | CCOc1cc(C(=O)N(Cc2cncc3cn[nH]c23)[C@H]2C[C@@H](N(C)C)C2)ccc1-c1cccc(C#N)c1 [Compound 290]
63 | < 100 | CCOc1cc(C(=O)N(C)[C@H](CCN(C)C)c2cccc3cn[nH]c23)ccc1-c1cc(F)cc(F)c1 [Compound 219]
